From ChEMBL document CHEMBL3217644, “Repairing faulty genes by aminoglycosides: Identification of new pharmacophore with enhanced suppression of disease-causing nonsense mutations” (Medchemcomm, 2011) come the findings set out here.

≈ marks a conversion by molar mass, not a printed value. Counter-ions that a name gives are not always drawn. Calls of active or inactive are those of the source.

The term IC50 denotes the point on the concentration scale where inhibition reaches its midpoint. Higher therefore signals a need for much substance. Broadly, the MIC is the smallest concentration in the dilution series that meets the test's criterion for growth inhibition. A low value points to a more susceptible organism.

For data set [1], the target named is T1, 80S Ribosome (Homo sapiens) (UniProt P08865+P42677+P62753+P15880+P23396+P61247+P62701+P22090+P46782+P62081+P62241+P46781+P46783+P62280+P25398+P62277+P62263+P62841+P62244+P62249+P08708+P62269+P39019+P60866+P63220+P62266+P62847+P62851+P62854+P62979+P62857+P62273+P62861+P39023+P36578+P46777+Q02878+P18124+P62424+P62917+P32969+P27635+P62906+P62913+P30050+P26373+P40429+P50914+P61313+P18621+Q07020+Q02543+P84098+P46778+P35268+P62829+P62750+P83731+P61254+P61353+P46776+P46779+P47914+P62888+P62899+P62910+P49207+P42766+P18077+Q9Y3U8+P83881+P61927+P61513+P63173+P62891+P62945+P05388+P05386). Put plainly: Induction of ribosome-mediated readthrough activity in R3X-transfected HEK293 cells assessed as suppression of R3X mutation after 16 hrs by dual luciferase reporter gene assay. The format is cell-based. A general note: A reporter such as luciferase makes a cellular process visible.

The test system of data set [2] is Ribosome. Put plainly: Induction of ribosome-mediated readthrough activity in rabbit reticulocyte lysate assessed as suppression of R245X mutation after 90 mins by dual luciferase reporter gene assay. The note with it: Oryctolagus cuniculus.
The test system of data set [3] is Ribosome. Put plainly: Induction of ribosome-mediated readthrough activity in rabbit reticulocyte lysate assessed as suppression of G542X mutation after 90 mins by dual luciferase reporter gene assay. The note with it: Oryctolagus cuniculus.
Data set [4] concerns the target T1, 80S Ribosome (Homo sapiens). Put plainly: Induction of ribosome-mediated readthrough activity in R245X-transfected HEK293 cells assessed as suppression of R245X mutation after 16 hrs by dual luciferase reporter gene assay. In kind it is cell-based.
The target is the same in data set [5]. Put plainly: Induction of ribosome-mediated readthrough activity in Q70X-transfected HEK293 cells assessed as suppression of Q70X mutation after 16 hrs by dual luciferase reporter gene assay. In kind it is cell-based.
Data set [6] concerns Ribosome. Nature of the data set: Inhibition of ribosome-mediated translation in prokaryotic system.
Data set [7] has as its system Ribosome. Put plainly: Induction of ribosome-mediated readthrough activity in rabbit reticulocyte lysate assessed as suppression of R3381X mutation after 90 mins by dual luciferase reporter gene assay. Particulars: Oryctolagus cuniculus.
A short description of data set [8]: (§1) Cytotoxicity against HFF. In kind it is cell-based. Particulars: human, HFF cells; read-out: LC50 (the source's name).
For data set [9], the target named is T1, 80S Ribosome (Homo sapiens). Put plainly: Induction of ribosome-mediated readthrough activity in W1282X-transfected HEK293 cells assessed as suppression of W1282X mutation after 16 hrs by dual luciferase reporter gene assay. The format is cell-based.
Another data set has as its system Bacillus spizizenii. Nature of the data set: Antibacterial activity against Bacillus subtilis ATCC 6633 by double microdilution method. In kind it is functional. A general note: In broth dilution the organism is exposed to a series of concentrations in liquid medium.
Data set [10] concerns Ribosome. Put plainly: Induction of ribosome-mediated readthrough activity in rabbit reticulocyte lysate assessed as suppression of W1282X mutation after 90 mins by dual luciferase reporter gene assay. Particulars: Oryctolagus cuniculus.
A further data set concerns Escherichia coli. Nature of the data set: Antibacterial activity against Escherichia coli R477/100 by double microdilution method. In kind it is functional.
A short description of data set [11]: Cytotoxicity against HEK293 cells. In kind it is cell-based. Particulars: human, read-out: LC50 (the source's name).
Another data set has as its system HFF. Described as §1. In kind it is cell-based. The note with it: human, hff; read-out: LC50 (the source's name).
In data set [12] the test system is Ribosome. Nature of the data set: Induction of ribosome-mediated readthrough activity in rabbit reticulocyte lysate assessed as suppression of R3X mutation after 90 mins by dual luciferase reporter gene assay. The note with it: Oryctolagus cuniculus.
The subject of data set [13] is Ribosome. Nature of the data set: Induction of ribosome-mediated readthrough activity in rabbit reticulocyte lysate assessed as suppression of Q70X mutation after 90 mins by dual luciferase reporter gene assay. Particulars: Oryctolagus cuniculus.

On to `NCC[C@H](O)C(=O)N[C@@H]1C[C@H](N)[C@@H](O[C@H]2O[C@H](CO)[C@@H](O)[C@H](O)[C@H]2N)[C@H](O[C@@H]2O[C@H](CN)[C@@H](O)[C@H]2O)[C@H]1O`, for which the result (in data set [1]; in the data set with Ribosome [2]; in the data set on Ribosome [3]; in data set [4]; in data set [5]; in the data set on Ribosome [7]) was Active. In addition, the outcome (in data set [9]; in the data set with Ribosome [10]) was Active. Moreover, 160 nM corresponded to half-maximal inhibition in the data set with Ribosome [6] (IC50). Also, the CC50 in data set [8] was 7.8 mM. The same compound had an MIC in the data set with Bacillus spizizenii of 70 µM (≈ 38.9 µg/mL).

In the case of `C[C@@H](N)[C@H]1O[C@@H](O[C@@H]2[C@@H](O)[C@H](NC(=O)[C@@H](O)CCN)C[C@H](N)[C@H]2O[C@H]2O[C@H](CO)[C@@H](O)[C@H](O)[C@H]2N)[C@H](O)[C@@H]1O`, the outcome (in [1]; in the data set with Ribosome [2]; in the data set on Ribosome [3]; in data set [4]; in data set [5]; in the data set with Ribosome [7]) was Active. The result (in [9]; in the data set on Ribosome [10]) was Active. In addition, the MIC was 1060 µM (≈ 602 µg/mL) against Escherichia coli and 33 µM (≈ 18.8 µg/mL) against Bacillus spizizenii. Besides, the CC50 in data set [11] turned out to be 13.9 mM; in [8], 19.3 mM. Half-maximal inhibition with Ribosome [6] (IC50) required 811 nM.

The compound `NC[C@H]1O[C@@H](O[C@@H]2[C@@H](O)[C@H](N)C[C@H](N)[C@H]2O[C@H]2O[C@H](CO)[C@@H](O)[C@H](O)[C@H]2N)[C@H](O)[C@@H]1O` came in with an IC50 with Ribosome [6] of 460 nM. Moreover, the CC50 in [8] amounted to 21.8 mM. For the same compound, the lowest concentration to inhibit growth against Bacillus spizizenii (MIC) was 100 µM (≈ 45.4 µg/mL).

In turn, “GENTAMICIN SULFATE [listing 1 of 2 here]” displayed an IC50 in the data set with Ribosome [6] of 28 nM. In the data set with HFF, the CC50 was determined as 3.2 mM.

As to `NC[C@@H]1O[C@H](O[C@H]2[C@@H](O)[C@H](O[C@@H]3[C@@H](O)[C@H](N)C[C@H](N)[C@H]3O[C@H]3O[C@H](CO)[C@@H](O)[C@H](O)[C@H]3N)O[C@@H]2CO)[C@H](N)[C@@H](O)[C@@H]1O` [PAROMOMYCIN SULFATE], the values for the CC50 in data set [11] and in data set [8] were 4.1 mM and 3.1 mM, respectively. Also, inhibition with Ribosome [6] was half-maximal at 51 nM (IC50). In the data set with Bacillus spizizenii, this compound registered an MIC of 1.2 µM.

On to “GENTAMICIN SULFATE [listing 2 of 2 here]”, for which the outcome (in [1]; in the data set with Ribosome [2]; in the data set on Ribosome [12]; in the data set with Ribosome [3]; in data set [4]; in data set [5]) was Active. The result (in the data set on Ribosome [7]; in the data set with Ribosome [13]; in data set [9]; with Ribosome [10]) was Active. In addition, in the data set on Bacillus spizizenii, the MIC is < 0.75 µM.

With `C[C@H](N)[C@H]1O[C@@H](O[C@@H]2[C@@H](O)[C@H](NC(=O)[C@@H](O)CCN)C[C@H](N)[C@H]2O[C@H]2O[C@H](CO)[C@@H](O)[C@H](O)[C@H]2N)[C@H](O)[C@@H]1O`, the result (in [1]; in the data set with Ribosome [2]; with Ribosome [3]; in data set [4]; in [5]; in the data set with Ribosome [7]) was Active. Also, the result (in data set [9]; with Ribosome [10]) was Active. Also, the figures for the MIC with Escherichia coli and against Bacillus spizizenii were 1070 µM (≈ 608 µg/mL) and 33 µM (≈ 18.8 µg/mL), respectively. The CC50 in data set [11] was found to be 10.1 mM; in data set [8], 8.1 mM. In the data set on Ribosome [6], this compound came in with an IC50 of 2270 nM.

For `C[C@@H](N)[C@H]1O[C@@H](O[C@@H]2[C@@H](O)[C@H](N)C[C@H](N)[C@H]2O[C@H]2O[C@H](CO)[C@@H](O)[C@H](O)[C@H]2N)[C@H](O)[C@@H]1O`, the outcome in the data set on Ribosome [2], in the data set on Ribosome [12], in the data set with Ribosome [3], in the data set with Ribosome [7], in the data set on Ribosome [13] and in the data set on Ribosome [10] was Active. For the same compound, the MIC in the data set on Escherichia coli worked out at 4990 µM (≈ 2340 µg/mL); in the data set with Bacillus spizizenii, 78 µM (≈ 36.5 µg/mL). Besides, the figures for the CC50 in data set [11] and in data set [8] were 19.8 mM and 20.1 mM, respectively. Further, the IC50 in the data set on Ribosome [6] was 2130 nM.

For `C[C@H](N)[C@H]1O[C@@H](O[C@@H]2[C@@H](O)[C@H](N)C[C@H](N)[C@H]2O[C@H]2O[C@H](CO)[C@@H](O)[C@H](O)[C@H]2N)[C@H](O)[C@@H]1O`, the outcome with Ribosome [2], in the data set on Ribosome [12], with Ribosome [3], with Ribosome [7], with Ribosome [13] and with Ribosome [10] was Active. Besides, the results for the MIC in the data set on Escherichia coli and against Bacillus spizizenii were 2660 µM (≈ 1250 µg/mL) and 83 µM (≈ 38.9 µg/mL), respectively. In addition, the CC50 in data set [11] amounted to 23.5 mM; in data set [8], 21.8 mM. The compound further had an IC50 in the data set with Ribosome [6] of 1960 nM.
